US20250344698A1, “A METHOD OF CONTROLLING WEEDS” (SYNGENTA CROP PROTECTION AG, priority 2022, published 2025)

Tested on: A. tuberculatus, about 60-70% of which contain the ΔG210 mutation
Experiment: Field trial, Illinois USA, visual % weed control
Format: in vivo, Amaranthus tuberculatus
Conditions: visually assessed 14 days after application

Structure (SMILES): COC(=O)CCNC(=O)C(C)Sc1cc(-n2c(=O)cc(C(F)(F)F)n(C)c2=O)c(F)cc1Cl (stereo not drawn) [Tiafenacil]
- Control (%) (use rate 50 g ai/ha): 33%
- Control (%) (use rate 100 g ai/ha): 30%
- Control (%) (use rate 150 g ai/ha): 33%
